Assay results published in patent US8217005B2 (priority 2006, dated 2012).

What was measured:
human μ-opioid receptor = target: T1, human μ-opioid receptor (Homo sapiens, UniProt P35372); experiment: biochemical; format: binding
T1 construct: expressed in transfected cells; host or cells: HEK-293 cells

[1] = rat, in vivo
[2] = male, Sprague-Dawley, rat, in vivo, 0.5 mg/kg

T1 sequence (P35372 whole entry): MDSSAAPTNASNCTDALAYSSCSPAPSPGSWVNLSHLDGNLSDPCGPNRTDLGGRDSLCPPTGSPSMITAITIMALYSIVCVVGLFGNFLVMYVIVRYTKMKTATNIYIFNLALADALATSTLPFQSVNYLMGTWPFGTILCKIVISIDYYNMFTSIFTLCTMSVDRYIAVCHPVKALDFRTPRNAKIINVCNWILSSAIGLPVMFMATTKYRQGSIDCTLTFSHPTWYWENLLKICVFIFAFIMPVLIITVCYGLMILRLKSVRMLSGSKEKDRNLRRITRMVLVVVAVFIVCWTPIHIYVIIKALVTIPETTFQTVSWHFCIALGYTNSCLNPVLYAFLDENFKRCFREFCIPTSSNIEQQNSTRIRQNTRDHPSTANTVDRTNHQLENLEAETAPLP

Q: Which IC50 (human μ-opioid receptor) does the source give for `CN(CCNC(=O)[C@@H](N)CCCNC(=N)N)C(=O)Oc1ccc2c3c1OC1C(=O)CCC4[C@@H](C2)N(C)CC[C@]314` (stereo partly drawn) [Example 1, Hydromorphone 3-(N-methyl-N-(2-arginylamino))ethylcarbamate] here?
A: Its IC50 is 2100 nM.

Q: For `CC(=O)N[C@@H](CCCNC(=N)N)C(=O)NCCN(C)C(=O)Oc1ccc2c3c1OC1C(=O)CCC4[C@@H](C2)N(C)CC[C@]314` (stereo partly drawn) [Example 3, Hydromorphone 3-(N-methyl-N-(2-N′-acetylarginylamino))ethylcarbamate], which IC50 (human μ-opioid receptor) is on record?
A: The IC50 was 1300 nM.

Q: For `CN(CCNC(=O)[C@H](CCCNC(=N)N)NC(=O)c1ccc2c(c1)OCO2)C(=O)Oc1ccc2c3c1OC1C(=O)CCC4[C@@H](C2)N(C)CC[C@]314` (stereo partly drawn) [Example 6, Hydromorphone 3-(N-methyl-N-(N′-piperonyl-2-arginylamino))ethylcarbamate], which IC50 (human μ-opioid receptor) is on record?
A: Its IC50 is 790 nM.

Q: For `CN(CCNC(=O)[C@@H](N)CCCCN)C(=O)Oc1ccc2c3c1OC1C(=O)CCC4[C@@H](C2)N(C)CC[C@]314` (stereo partly drawn) [Example 7, Hydromorphone 3-(N-methyl-N-(2-lysinylamino))ethylcarbamate], which IC50 (human μ-opioid receptor) is on record?
A: Its IC50 is 790 nM.

Q: What does the source list for `CN(CCN)C(=O)Oc1ccc2c3c1O[C@H]1C(=O)CC[C@@]4(O)[C@@H](C2)[N+](C)(CC2CC2)CC[C@]314.Cl.[Cl-]` (stereo partly drawn) [Example 19]?
A: pharmacokinetic profile (e.g. oral bioavailability), FIG. 1 ([1]; 20 mg/kg): improved pharmacokinetic profile; Cmax value compared to (R)-N-methylnaltrexone ([1]; po): superior

Q: Which “Cmax N-MTX following PO dosing” value ([1]; 20 mg/kg) does the source give for `C[N@+]1(CC2CC2)CC[C@]23c4c5ccc(O)c4O[C@H]2C(=O)CC[C@@]3(O)[C@H]1C5` [N-methylnaltrexone, (R)—N-methylnaltrexone, reference compound] here?
A: Its value is 6 ng/mL.

Q: What about the “pharmacokinetic profile (e.g. oral bioavailability), FIG. 1” value ([1]; 20 mg/kg) of the same compound?
A: Its value is “poor pharmacokinetic profile”.

Q: With `CN1CC[C@]23c4c5ccc(O)c4O[C@H]2C(=O)CC[C@@]3(O)[C@H]1C5` [oxymorphone] as the compound, how does the “Cmax OM following IV dosing” value [2] read?
A: The value was 432 ng/mL.
